Series [1] has as its system β-catenin. Kind of series: Western blot of cytosolic β-catenin in colorectal cancer cells. The series is classed as cell-based. As to the method: (§1) CRC explants and colorectal cancer cell lines were cultured in 6-well plates. […] After washing cells with PBS three times, hypotonic lysis buffer consist of 10 mM Tris-HCl, pH7.4 and 0.2 mM MgCl2, supplemented with 1× Halt Protease and Phosphatase Inhibitor Cocktail (Thermo Scientific Pierce Protein Research Products, Rockford, Ill.) were applied to make cell lyates for Western Blot.
(§2) After washing cells with PBS, cell lysates were made with hypotonic lysis buffer.
A general note: In western blotting, separated proteins are transferred to a membrane and probed.

Series [2] concerns β-catenin. The series is described as follows: Immunohistochemistry of β-catenin in treated tumors. Type of series: in vivo, NOD/SCID mice. The conditions noted are these: 200 mg/kg, 2 or 3 weeks. As to the method: Paraffin-embedded specimens were cut into 4 μm-thick of sequential sections. After dewaxing in xylene and rehydrating stepwise in ethanol, sections were subjected to heat-induced antigen retrieval. Endogenous peroxidase activity was blocked with 3% H2O2, and non-specific binding was blocked with non-immune horse sera. Sections were then incubated with primary antibodies overnight at 4C. Anti-β-catenin (sc-65483, Santa Cruz Biotechnology, Inc., Santa Cruz, Calif.) and anti-Dvl-2 (sc-8026, Santa Cruz Biotechnology, Inc., Santa Cruz, Calif.) monoclonal antibodies were used at (1:50) dilution. After rinsing the sections were incubated with the biotinylated secondary antibody (1:200 dilution; Dakopatts, Copenhagen, Denmark) for 30 min at room temperature and then with the avidin-biotin peroxidase complex from the Vector Elite ABC kit (Vector Laboratories, Burlingame, Calif.) according to the manufacturer's instructions. Visualization was achieved using 3,3′-diaminobenzidine tetrahydrochloride and H2O2. Specimens were counterstained with hematoxylin.
NOD/SCID mice were implanted with colorectal cancer explants or cell lines. […] Tumors were excised and fixed with 10% neutralized, buffered formalin. Paraffin-embedded specimens were cut into 4 μm-thick of sequential sections. After dewaxing and rehydration, heat-induced antigen retrieval was performed. […]

A further series deals with CRC119 tumor cells. Kind of series: Flow-based cytotoxicity assay (annexin V), CRC119. The series is classed as cell-based. The conditions noted are these: 3 days, 0.2-20 μM. As to the method:
(§3) After 3 days incubation, all cells were harvested with 0.05% trypsin/EDTA and spun down by centrifugation. Cells were labeled with biotin-conjugated Annexin V, and then stained with 7-AAD and Streptavidin-APC. Samples were acquired by FACSCalibur machine (BD Bioscience) and analyzed with CellQuest software. Cells were analyzed for expression of Annexin V as a marker of apoptosis.
(§4) Annexin V may be used as a marker for apoptosis and other forms of cell death. […] After 3 days of incubation, all cells were harvested with 0.05% trypsin/EDTA, labeled with biotin-conjugated Annexin V, and then stained with 7-AAD and streptavidin-APC. Samples were acquired by FACSCalibur, and percentages of annexin V-positive cells were analyzed and plotted as shown in FIG. 11. Cells were analyzed for expression of Annexin V as a marker of apoptosis.

The subject of another series is Dvl-2. The series is described as follows: Western blot of cytosolic Dvl-2 in colorectal cancer cells. The series is classed as cell-based. As to the method: as §1, §2
The subject of the next series is Dishevelled-2. The series is described as follows: Immunoblot of endogenous cytosolic Dishevelled-2 in U2OS cells. Type of series: cell-based. Particulars: 1-7.5 μM, read-out: half maximal reduction of Dishevelled-2. The text has this: (§5) After treatment, cytosolic fraction as well as cellular membrane were isolated as described (Mikels, A. J., et al. PLoS Biol 2006, 4, e115, incorporated herein by reference in its entirety). Immunoblots using β-catenin or Dishevelled-2 antibody were used to detect the respective protein levels in cytosol or on membrane, with β-actin immunoblots used for loading controls.
Dishevelled proteins (Dishevelled-1, 2, and 3 in mammalian cells) are intracellular molecules transducing Frizzled signaling.

For series [3], the system named is β-catenin. Kind of series: Immunoblot of Wnt3A-stimulated β-catenin stabilization in U2OS cells. Type of series: cell-based.
Source text: as §5
The accumulation of cytosolic β-catenin is a measure of canonical Wnt signaling (Mikels, A. J., and Nusse, R. PLoS Biol 2006, 4, e115, incorporated herein by reference).

Another series has as its system fibroblasts. The series is described as follows: Flow-based cytotoxicity assay (annexin V), fibroblasts. The conditions noted are these: 3 days, 0.2-20 μM. The series is classed as cell-based. As to the method: as §3, §4
The test system of a further series is HCT116 cells. Kind of series: MTT assay, HCT116. Type of series: cell-based. As to the method: AsPC-1 tumor cells were cultured with T cells at a 1:5 ratio for 7 days in the presence of MEDI-565 or Cont BiTE (100 ng/mL). On day 7, floating cells were discarded and only adherent AsPC-1 cells were harvested with 0.05% trypsin/EDTA and washed with PBS three times. 1×10^4 AsPC-1 tumor cells were added to each well of 96 well flat bottom plates in 200 μL of complete RPMI1640 medium. The cells were allowed to adhere to the plates overnight at 37° C. (day 0) and were further incubated for 1, 2, 4 or 7 days. 20 μL of 10×MTT (3-[4,5-dimethylthiazol-2-yl]-2,5-diphenyl-tetrazolium bromide, 5 mg/mL) solution was added to each well, and incubated at 37° C. for 2 hr. The adherent cells were lysed with 150 μL of dimethyl sulfoxide (DMSO) and the optical density (OD) at 550 nm was measured.
Colorectal cancer cell lines were incubated in 96-well flat-bottomed plates at 5,000 cells per well in 200 μL of complete RPMI1640 medium. The cells were allowed to adhere to the plates overnight at 37° C. (day 0). […] Then 20 μL of 10×MTT solution was added to each well and incubated at 37° C. for 2 hr. The adherent cells were lysed with 150 μL of DMSO, and then optical density (OD) at 562 nm was measured. DMSO or culture medium was used as a control.
MTT assay was performed at each time point.
(Tetrazolium dyes change colour on reduction, which living cells bring about.)

The mark [4] stands for this setting: CRC057 and HCT116, 1, 5, 10 μM, 18 hr.

SMILES strings stand for the structures.

In the case of `O=C(Nc1ccc([N+](=O)[O-])cc1Cl)c1cc(Cl)ccc1O` [niclosamide], the “cytosolic β-catenin expression” value in the series on β-catenin [1] (setting [4]) is “downregulated”; in the series with β-catenin [1] (HT29 cells), “milder change”. Further, the “cytoplasmic expression of β-catenin in tumors vs control” value with β-catenin [2] is recorded as “decreased levels”. In the series on CRC119 tumor cells, the “concentration with steep increase of annexin V-positive cells” value amounted to 1 µM. The “cytosolic Dvl-2 expression” value in the series on Dvl-2 (setting [4]) is listed as “downregulated”; with Dvl-2 (HT29 cells) it was “milder change”. The IC50 in the series on Dishevelled-2 is about 1 µM; in the series on β-catenin [3] (immunoblot, n=3, read-out: half maximal inhibition of Wnt3A signaling (β-catenin stabilization)), about 1 µM. Besides, the “Wnt3A-stimulated cytosolic β-catenin stabilization” value with β-catenin [3] (7.5 μM, cytosol) was “prevented”. The “membrane-bound β-catenin levels” value in the series with β-catenin [3] (7.5 μM, membrane) is reported as “relatively unchanged”. Also, in the series with β-catenin [3] (immunoblot, n=3), the “concentration range of the inhibitory effect on β-catenin stabilization” value lay in the range of 1 to 7.5 µM. Besides, the “apoptotic cell death (annexin V)” value with fibroblasts is recorded as “did not show a significant increase”. For the same compound, in the series with HCT116 cells (2 μM, 72 hr), the “cytotoxic effect compared with 10 μM oxaliplatin” value is “stronger cytotoxic effect”. In addition, the “proliferation (MTT, OD 562 nm), sensitivity among three cell lines” value with HCT116 cells (0.4, 2, 10 μM, 72 hr) is “most sensitive”. Also, the “% proliferation over time” value in the series with HCT116 cells (0.4, 2, 10 μM, 24-96 hr) is reported as “sensitive”. In addition, the “concentration at which cells were killed over time” value in the series on HCT116 cells (24-96 hr) worked out at 0.4 µM.

Values taken from patent US20130005802A1, “TREATMENT OF WNT/FRIZZLED-RELATED DISEASES” (priority 2009, published 2013).
